From patent US20090124690A1, “Generation of Combinatorial Synthetic Libraries and Screening for Novel Proadhesins and Nonadhesins” (priority 2000, published 2009)

Experiments:
P. aerug. = assay: Library screening against P. aeruginosa (IC50); format: cell-based, Pseudomonas aeruginosa; conditions: Table 3
[1] = tested on: MRSA Staphylococcus aureus; assay: Anti-adhesion assay, MRSA Staphylococcus aureus; format: cell-based; conditions: for ICMAX / ICMAX: level of maximal inhibition (ICxx): anti-adhesion, MRSA S. aureus, cell reads 'ICxx - concentration'
Dengue 2 = assay: Anti-infection (adhesion) of viruses: Dengue 2, focus forming unit (FFU) reduction assay on LLCMK-2 cells; format: cell-based, Dengue virus (DENV-2 strain NG-2); conditions: FIG. 6
Procedure: (§1) DENV-1 strain HI-1, DENV-2 strain NG-2, DENV-3 strain H-78, and DENV-4 strain H-42 were obtained from R. Tesh at the World Health Organization Arbovirus Reference Laboratory at the University of Texas at Galveston. Viruses were propagated in the African green monkey kidney epithelial cell line, LLCMK-2, a gift of K. Olsen at Colorado State University. LLCMK-2 cells were grown in DMEM with 10% (v/v) FBS, 2 mM Glutamax, 100 U/ml penicillin G, 100 μg/ml streptomycin and 0.25 μg/ml amphotericin B, at 37° C. with 5% (V/V) CO2.
LLCMK-2 target cells were seeded at a density of 1×10^5 cells in each well of a 6-well plate 24 h prior to infection. Approximately 200 FFU of virus were incubated with or without chemistries in serum-free DMEM for 1 h at rt. […] Virus foci were detected using supernatant from mouse anti-DENV hybridoma E60 (obtained from M. Diamond at Washington University) followed by horseradish peroxidase-conjugated goat anti-mouse immunoglobulin (Pierce, Rockford, Ill.) and developed using AEC chromogen substrate (Dako, Carpinteria, Calif.). Results were expressed as the average of at least two independent trials with three replicates in each trial.

Colletotrichum acutatum = assay: Petri dish assay for activity against Colletotrichum acutatum (spore adhesion); conditions: for Inhibition of adhesion of spores to polystyrene surfaces, Colletotrichum acutatum: compound tested at 0.5%
Dengue virus = assay: Direct binding assay (DART TOF-MS), Dengue virus; conditions: FIG. 6
Text: The virus particles were collected and fixed in 100% (USP) ethanol prior to DART TOF-MS analysis. The closed end of a borosilicate glass capillary tube was immersed in the virion solution and passed through the DART He plasma to obtain mass spectra of virion surface-bound chemistries. […] The same conditions were used to assess the binding of composition here to bacterial species. • 1. […] Viruses and Cells
as §1

[2] = tested on: Staphylococcus epidermidis; assay: 96-well plate assay for activity against Staphylococcus epidermidis (adhesion, Syto 13); conditions: compound tested at 0.5%

SMILES	ICMAX [1]	ICMAX: level of maximal inhibition (ICxx) [1]	Inhibition of adhesion of spores to polystyrene surfaces, Colletotrichum acutatum (Colletotrichum acutatum)	also measured
CCN(CCOC(=O)/C=C/c1ccc(O)cc1)Cc1cc(Cl)ccc1O [Compound I]	120 µM	IC70		IC50 (% wt/vol) P. aerug. (P. aerug.): 0.001 % wt/vol; IC50 ([1]; Staphylococcus aureus, MRSA): 82 µM; Dengue infection when compound is bound (Dengue 2): inhibited; IC50 (% wt/vol) C. acut. (Colletotrichum acutatum; Table 3): 0.004 % wt/vol; direct binding to Dengue virus (DART-MS) (Dengue virus): direct binding
CNC(=O)C(Cc1ccc(OS(=O)(=O)C(F)(F)F)cc1)NC(=O)COCC(=O)Nc1cccc(OS(=O)(=O)C(F)(F)F)c1 (stereo not drawn) [Compound B02]			−16%	
O=C(O)/C=C/c1ccc(OS(=O)(=O)O)cc1 [Zosteric Acid, reference compound]	90 µM	IC100		
CNC(=O)C(Cc1ccc(OS(C)(=O)=O)cc1)NC(=O)COCC(=O)Nc1cccc(OS(C)(=O)=O)c1 (stereo not drawn) [Compound A02]			−12%	Inhibition of adhesion of cells to polystyrene surfaces, Staphylococcus epidermidis [2]: 22%
